Reference: the supplement of paper PMC10307832

Experiments:
Assay in all cases: relative viability (nuclei count vs DMSO), 5 days (fraction); higher = more cells survive
IPA-3 + Palbociclib = compound: C1=CC=C2C(=C1)C=CC(=C2SSC3=C(C=CC4=CC=CC=C43)O)O [IPA-3] + CC(=O)c1c(C)c2cnc(Nc3ccc(N4CCNCC4)cn3)nc2n(C2CCCC2)c1=O [Palbociclib] (partner 0.5 µM)
In short: (§1)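 Lung cancer cell lines in 1536-well plates were dosed by pin tool the day after seeding, either with one drug alone or with a fixed anchor-drug dose plus five library-drug doses (not always all listed) in √10 steps. After 5 days, cells were fixed and their nuclei stained in one step (final 0.05% Triton X-100, 1% formaldehyde, 1 ug/ml Hoechst), then counted on 4× images. Relative viability is the nuclei count in treated wells divided by that in vehicle wells. Values are medians of duplicate plates.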

Doramapimod + Tozasertib = compound: Cc1ccc(-n2nc(C(C)(C)C)cc2NC(=O)Nc2ccc(OCCN3CCOCC3)c3ccccc23)cc1 [Doramapimod] + Cc1cc(Nc2cc(N3CCN(C)CC3)nc(Sc3ccc(NC(=O)C4CC4)cc3)n2)n[nH]1 [Tozasertib] (partner 0.1 µM)
In short: as §1

RAF265 + Navitoclax = compound: Cn1c(Nc2ccc(C(F)(F)F)cc2)nc2cc(Oc3ccnc(-c4ncc(C(F)(F)F)[nH]4)c3)ccc21 [RAF265] + CC1(C)CCC(c2ccc(Cl)cc2)=C(CN2CCN(c3ccc(C(=O)NS(=O)(=O)c4ccc(N[C@H](CCN5CCOCC5)CSc5ccccc5)c(S(=O)(=O)C(F)(F)F)c4)cc3)CC2)C1 [Navitoclax] (partner 0.5 µM)
In short: as §1

RAF265 + AZD7762 = compound: Cn1c(Nc2ccc(C(F)(F)F)cc2)nc2cc(Oc3ccnc(-c4ncc(C(F)(F)F)[nH]4)c3)ccc21 [RAF265] + NC(=O)Nc1cc(-c2cccc(F)c2)sc1C(=O)N[C@H]1CCCNC1 [AZD7762] (partner 0.2 µM)
In short: as §1

| Cell Line | relative viability (IPA-3 + Palbociclib; first compound 0.2 µM) | relative viability (IPA-3 + Palbociclib; first compound 0.6325 µM) | relative viability (IPA-3 + Palbociclib; first compound 2 µM) | relative viability (IPA-3 + Palbociclib; first compound 6.325 µM) | relative viability (IPA-3 + Palbociclib; first compound 20 µM) | relative viability (Doramapimod + Tozasertib; first compound 0.02 µM) | relative viability (Doramapimod + Tozasertib; first compound 0.06325 µM) | relative viability (Doramapimod + Tozasertib; first compound 0.2 µM) | relative viability (Doramapimod + Tozasertib; first compound 0.6325 µM) | relative viability (Doramapimod + Tozasertib; first compound 2 µM) | relative viability (RAF265 + Navitoclax; first compound 0.01 µM) | relative viability (RAF265 + Navitoclax; first compound 0.03162 µM) | relative viability (RAF265 + Navitoclax; first compound 0.1 µM) | relative viability (RAF265 + Navitoclax; first compound 0.3162 µM) | relative viability (RAF265 + Navitoclax; first compound 1 µM) | relative viability (RAF265 + AZD7762; first compound 0.01 µM) | relative viability (RAF265 + AZD7762; first compound 0.03162 µM) | relative viability (RAF265 + AZD7762; first compound 0.1 µM) | relative viability (RAF265 + AZD7762; first compound 1 µM) | relative viability (RAF265 + AZD7762; first compound 0.3162 µM) |
| --- | --- | --- | --- | --- | --- | --- | --- | --- | --- | --- | --- | --- | --- | --- | --- | --- | --- | --- | --- | --- |
| H3255 | 0.306 | 0.308 | 0.29 | 0.298 | 0.272 | 0.688 | 0.65 | 0.669 | 0.602 | 0.452 | 0.563 | 0.47 | 0.695 | 0.0727 | 0.23 | 0.931 | 1.01 | 0.877 | 0.623 |  |
| HARA | 0.255 | 0.24 | 0.255 | 0.27 | 0.235 | 0.128 | 0.112 | 0.106 |  | 0.107 | 1.15 | 1.05 | 1.1 | 1.21 | 0.824 | 0.315 | 0.128 | 0.303 | 0.221 | 0.419 |
| HCC-15 | 0.889 | 0.78 | 0.462 | 0.697 | 0.704 | 0.401 | 0.343 | 0.414 |  | 0.309 | 0.734 | 0.709 | 0.7 | 0.505 | 0.464 | 1.31 | 1.17 | 1.12 | 1.18 | 1.27 |
| HCC-44 | 0.966 | 1.02 | 0.979 | 0.948 | 0.934 | 0.961 | 1.01 | 1.19 | 0.913 | 0.84 | 0.879 | 0.884 | 1.03 | 1.03 | 0.916 | 1 | 0.985 | 1.03 | 0.955 | 1 |
| HCC-78 | 0.53 | 0.435 | 0.485 | 0.486 | 0.484 | 0.404 | 0.537 | 0.291 | 0.471 | 0.402 | 0.898 | 0.901 | 0.912 | 0.726 | 0.731 | 0.634 | 0.863 | 0.731 | 0.567 | 0.269 |
| HCC-366 | 0.479 | 0.382 | 0.374 | 0.378 | 0.474 | 0.117 | 0.129 | 0.15 | 0.0878 | 0.0672 | 1.09 | 1.15 | 1.13 | 1.09 | 0.776 | 0.25 | 0.253 | 0.396 | 0.157 | 0.321 |
| HCC-827 | 0.559 | 0.475 | 0.484 | 0.53 | 0.568 | 0.422 | 0.414 | 0.422 | 0.375 | 0.356 | 1.06 | 0.987 | 1.08 |  | 0.78 | 0.213 | 0.357 | 0.215 | 0.197 |  |
| HOP-62 | 0.435 | 0.365 | 0.414 | 0.451 | 0.513 | 0.386 | 0.356 | 0.382 | 0.424 | 0.28 | 0.942 | 0.963 | 0.921 | 0.995 | 0.951 | 0.572 | 0.553 | 0.462 | 0.422 | 0.482 |
